Read-outs that look alike come from different tables or passages of the source.
Legend:
[1] = Mouse intravenous pharmacokinetics and blood/plasma partitioning; type: in vivo; conditions: mice; for blood plasma ratio: whole blood and plasma, iv
Source text: The ability of compound 12 to partition preferentially in red blood cells has also been confirmed in mice treated intravenously. […] Analogous to the measurements in rats, the volume of distribution (Vss) was low in mice (0.10). Thus, compound 12 is not expected to broadly distribute into extravascular space in mice.

[2] = molecular target: T1, whole blood from homozygous sickle cell patients, Hb(S) (Homo sapiens, UniProt P68871+P69905, E7V); test: Reverse Hemox assay (oxygen equilibrium curves), whole blood; type: cell-based; conditions: for Whole Blood OEC (delta p50%): [Hb] 1 mM
T1 construct: Oxygen Equilibrium Curves (OEC) of whole blood before and after treatment; from tissue; host or cells: whole blood (or washed red blood cells) of homozygous sickle cell patients
Protocol: Oxygen Equilibrium Curves (OEC) of whole blood before and after treatment with different concentrations of compounds 12, 22 and 23 were performed as follows using a HEMOX analyzer (TCS Scientific, New Hope, Pa.). Blood samples from homozygous sickle cell patients were obtained though the Hemoglobinopathy Center at Children's Hospital Oakland Research Institute (CHORI) with Institutional Review Board approval. The hematocrit was adjusted to 20% using autologous plasma and the blood samples were incubated for 1 hour at 37° C. in absence or presence of compounds. 100 μl of these samples were added to 5 mL of Hemox butter (30 mM TES, 130 mM NaCl, 5 mM KCl, pH=7.4) at 37° C. and then transferred to the Hemox sample chamber. The samples were saturated with oxygen by flushing with compressed air for 10 minutes. The samples were then flushed with pure nitrogen and the respective absorbances of oxy- and deoxy-Hb are recorded as a function of the solution pO2. The oxygen equilibrium data were then fitted to the Hill Model to obtain values for p50. The deoxygenation curves for both whole blood alone (control) and whole blood in the presence of the compound were collected with the TCS software.
Results: Table 3 below lists the delta p50% values where “+” indicates a delta p50% of between 0 and 29, “++” indicates a delta p50% of between 30 and 50, and “+++” indicates a delta p50% of 50 or greater.
Reverse hemox assay was performed essentially as described in Example 2, above, using either washed red blood cells or whole blood.

HbS/A = molecular target: T2, HbS/A (Homo sapiens, UniProt P68871+P69905, E7V); test: R/T assay (relaxed-to-tense transition); type: biochemical; conditions: HbS/A 3 μM
T2 construct: A mixture of HbS/A was purified from blood obtained from homozygous sickle cell patients; from tissue; host or cells: blood of homozygous sickle cell patients
Protocol: This ability can be expressed as a “delta R” value (i.e., the change in the time-period of the R state after hemoglobin is treated with a compound, as compared to the period without treatment with the compound). Delta R is the % R to remaining after the compounds treatment compared with no treatment (e.g., if R % without treatment is 8% while with treatment with a target compound is 48% R at 30 μM, then % R is 40% for that compound.
A mixture of HbS/A was purified from blood obtained from homozygous sickle cell patients though the Hemoglobinopathy Center at Children's Hospital Oakland Research Institute (CHORI) with Institutional Review Board approval. HbS/A (at a final concentration of 3 μM) was incubated for 1 hr at 37° C. in presence or absence of compounds in […] potassium phosphate buffer, pH=7.4 and 30 μM 2,3 diphosphoglycerate (DPG) in 96 well plates in a final volume of 160 μl. Compounds were added at different concentrations (3 μM to 100 μM final concentrations). Plates were covered with a Mylar film. After incubation was completed the Mylar cover was removed and the plates were placed in a Spectrostar Nano plate reader previously heated at 37° C. Five minutes later, N2 (flow rate=20 L/min) was flowed through the spectrophotometer. Spectroscopic measurements (300 nm to 700 nm) were taken every 5 min for 2 hours. Data analysis was performed by using linear regression from the data retrieved for all wavelengths.

[3] = test system: sickle cell disease patient whole blood (ssRBCs); test: Viscosity assay, hypoxic sickle cell blood; type: cell-based, human; conditions: for Viscosity (ΔcP): [Hb] 1.5 mM, two hours of hypoxia
Protocol: Sickle cell disease patients develop anemia as a means for the circulatory system to compensate for increase in blood viscosity caused by the non-deformable sickle cell red blood cells (ssRBCs). The effects of 5-HMF, compound 5, compound 9, or compound 12 were tested on sickle cell disease patient blood rheology to determine if these compounds decrease the viscosity of ssRBCs that have undergone hypoxia. Using blood from patients with sickle cell disease, whole blood (30% hematocrit, ˜1.5 mM Hb) was incubated with 5-HMF, compound 5, compound 9, or compound 12 during exposure to two hours of hypoxia (2.4% 02). A cone-plate viscometer was used to measure the viscosity at shear rates ranging from 60 s^−1 to 415 s^−1.

red blood cells = test: Sickling assay under hypoxia; type: cell-based; conditions: for Sickling (% sickled): [HbS] ~1 mM (20% HCT), No Cmpd 85
Protocol: For sickling experiments, red blood cells were pre-incubated with compound 12 or 5-HMF, then subjected to hypoxia (pO2 of ˜3 mmHg) in a 37° C. humidified chamber for 0.5 hr and subsequently imaged using a light microscope. The percentage of sickled cells in each image was calculated using CellVigene software.

CC(C)n1nccc1-c1ncccc1COc1cccc(O)c1C=O [Compound 12, 2-hydroxy-6-[[2-(2-propan-2-ylpyrazol-3-yl)pyridin-3-yl]methoxy] benzaldehyde]
Vd ([1]; in vivo, read-out: volume of distribution (Vss)): 0.1 L/kg | blood plasma ratio ([1]; read-out: ratio of blood/plasma at overall exposure): 30 | blood plasma ratio ([1]; read-out: ratio of blood/plasma at peak in vivo concentration): 15.4 | Reverse Hemox delta p50% (class) ([2]; 1 mM compound, whole blood, hematocrit 20%): +++ (a delta p50% of 50 or greater) | Reverse Hemox delta p50% ([2]; 1 mM compound, whole blood, hematocrit 20%, 1 hour 37° C.): 79.83% | Whole Blood OEC (delta p50%) ([2]; [cmp] 1 mM): 80% | Whole Blood OEC (delta p50%) ([2]; [cmp] 3 mM): >80% | p50 ([2]; whole blood from sickle cell disease patients, control blood p50 30 mm Hg): 6 mm Hg | R-T delta R (HbS/A; 9 μM compound): 65.45 | R-T delta R (class) (HbS/A; 9 μM compound): +++ (a delta R of 50 or greater) | R-T delta R (HbS/A; 10 μM compound): 62.75 | R-T delta R (class) (HbS/A; 10 μM compound): +++ (a delta R of 50 or greater) | Viscosity (ΔcP) ([3]; [cmp] 1.6 mM): 2.0 cP | Viscosity (ΔcP) ([3]; [cmp] 8 mM): >2.4 cP | blood viscosity ([3]; equimolar compound, hypoxia, 6.33 cP without compound): 4.32 cP | Sickling (% sickled) (red blood cells; [Cmpd] 1 mM): 41% | Sickling (% sickled) (red blood cells; [Cmpd] 2 mM): 33% | Sickling (% sickled) (red blood cells; [Cmpd] 5 mM): 28% | sickling of RBCs (in words) (red blood cells; hypoxia 0.5 hr, 37° C.): prevented sickling of RBCs under hypoxia

— patent publication US20160038474A1, “COMPOSITIONS AND METHODS FOR THE MODULATION OF HEMOGLOBIN (S)” (GLOBAL BLOOD THERAPEUTICS, INC., priority 2013, published 2016)
